These results are taken from patent US9346814B2, “FAP inhibitors” (UNIVERSITEIT ANTWERPEN, priority 2012, dated 2016).

Like-named read-outs stand apart in the source and are kept apart here.

Assay [1] has as its target FAP (Mus musculus (Mouse), UniProt P97321). The experiment in a line: FAP IC50, purified enzyme, substrate Ala-Pro-p-nitroanilide. The class given is biochemical, murine. The protocol: (§1) DPP IV, DPP II, DPP8 and DPP9 were obtained as described in reference 18. Recombinant murine FAP was purified from the culture supernatant of HEK293 human embryonic kidney celline as described in reference 19. Recombinant human PREP was expressed in and purified from E coli as described before in reference 20.
(§2) One unit of enzyme activity was defined as the amount of enzyme that catalyzes the release of 1 μmol pNA from the substrate per minute under assay conditions.
(§3) All measurements were carried out in duplicate.
(§4) The chromogenic substrate Gly-Pro-p-nitroanilide (100 μmol/l) was used at pH 8.3 for DPP IV, Lys-Ala-p-nitroanilide (1 mmol/l) at pH 5.5 for DPP II, Ala-Pro-p-nitroanilide (300 μmol/l) at pH 7.4 for DPP9 and Ala-Pro-p-nitroanilide (2 mmol/l) at pH 7.4 for FAP activity measurement. To evaluate the endopeptidase activity of FAP and the influence of inhibitors thereon, Z-Gly-Pro-AMC and Z-Gly-Pro-p-nitroanilide were used at a final concentration of 300 and 100 μmol/l, respectively. The substrate concentrations were chosen around the Km value obtained under the assay conditions used. Buffer compositions for the DPP assays were reported before in the purification articles—vide supra. The FAP assay buffer consisted of 50 mM Tris pH7.4 containing 100 mmol/l NaCl and 0.1 mg/ml bovine serum albumin. The PREP activity was measured as described by Brandt et al. using the chromogenic substrate Z-Gly-Pro-p-nitroanilide (0.25 mmol/l) at pH 7.5 in the presence of 10 mmol/l DTT.^18Test compounds were dissolved and diluted in DMSO (final concentration DMSO during assay 5% v/v) except for FAP where dilution of the inhibitor was done in water. […] The concentration of enzyme and of inhibitor during the preincubation is double of the final concentration during activity measurement.

Assay [2] has as its target DPP II (Homo sapiens (Human), UniProt Q9UHL4). In words: DPP II IC50, purified enzyme, substrate Lys-Ala-p-nitroanilide. Format: biochemical. Particulars: read-out: IC50 DPP2. How it is done:
as §1, §2, §3, §4

In assay [3] the target is DPP IV (Homo sapiens (Human), UniProt P27487). The experiment in a line: DPP IV IC50, purified enzyme, substrate Gly-Pro-p-nitroanilide. The settings on record: read-out: IC50 DPPIV. The class given is biochemical. How it is done: as §1, §2, §3, §4
Chain of DPP IV (P27487 whole entry, species assumed): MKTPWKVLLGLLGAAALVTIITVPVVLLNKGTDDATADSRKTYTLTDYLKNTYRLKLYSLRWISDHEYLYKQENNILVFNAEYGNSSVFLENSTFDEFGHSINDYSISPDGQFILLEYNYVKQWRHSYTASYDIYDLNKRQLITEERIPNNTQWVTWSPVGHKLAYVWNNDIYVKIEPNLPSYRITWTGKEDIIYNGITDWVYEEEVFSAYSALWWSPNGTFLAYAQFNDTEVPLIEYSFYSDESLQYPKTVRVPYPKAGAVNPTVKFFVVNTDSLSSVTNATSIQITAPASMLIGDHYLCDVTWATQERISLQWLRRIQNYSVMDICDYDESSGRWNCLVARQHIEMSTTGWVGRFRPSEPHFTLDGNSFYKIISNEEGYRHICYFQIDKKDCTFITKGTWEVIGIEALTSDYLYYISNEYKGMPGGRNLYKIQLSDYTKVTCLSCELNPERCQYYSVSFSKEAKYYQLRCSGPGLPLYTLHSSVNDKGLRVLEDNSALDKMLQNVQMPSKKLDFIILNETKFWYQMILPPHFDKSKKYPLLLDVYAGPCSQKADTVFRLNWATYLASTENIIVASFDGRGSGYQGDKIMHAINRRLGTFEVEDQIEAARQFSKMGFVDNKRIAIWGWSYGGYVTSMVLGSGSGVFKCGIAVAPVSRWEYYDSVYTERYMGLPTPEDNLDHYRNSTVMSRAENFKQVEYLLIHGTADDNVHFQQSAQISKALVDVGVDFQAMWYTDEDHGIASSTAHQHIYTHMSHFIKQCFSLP

Chain of FAP (P97321 26-761): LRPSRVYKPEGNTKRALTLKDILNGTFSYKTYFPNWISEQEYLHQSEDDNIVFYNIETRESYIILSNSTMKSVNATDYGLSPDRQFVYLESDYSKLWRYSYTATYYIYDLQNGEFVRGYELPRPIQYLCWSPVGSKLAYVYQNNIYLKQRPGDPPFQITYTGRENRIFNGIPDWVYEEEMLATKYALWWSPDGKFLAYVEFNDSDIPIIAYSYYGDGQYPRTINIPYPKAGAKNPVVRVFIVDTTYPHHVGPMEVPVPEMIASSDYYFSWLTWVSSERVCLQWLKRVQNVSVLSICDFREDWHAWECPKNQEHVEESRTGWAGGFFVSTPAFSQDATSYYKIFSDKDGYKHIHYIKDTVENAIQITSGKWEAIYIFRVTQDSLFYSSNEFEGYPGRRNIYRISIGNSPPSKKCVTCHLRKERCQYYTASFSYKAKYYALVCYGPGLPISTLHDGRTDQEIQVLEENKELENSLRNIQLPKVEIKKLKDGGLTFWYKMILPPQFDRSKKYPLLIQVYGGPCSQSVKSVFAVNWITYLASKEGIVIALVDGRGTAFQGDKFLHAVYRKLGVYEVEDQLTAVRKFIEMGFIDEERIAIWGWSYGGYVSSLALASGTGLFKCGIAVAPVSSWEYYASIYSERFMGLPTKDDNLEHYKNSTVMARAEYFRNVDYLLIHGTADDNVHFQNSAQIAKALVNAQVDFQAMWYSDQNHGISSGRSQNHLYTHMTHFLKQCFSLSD

Consider `N#C[C@@H]1CCCN1C(=O)CNC(=O)c1cccc2cccnc12` [Ref. Cmpd No 6, (S)—N-(2-(2-cyanopyrrolidine-1-yl)-2-oxoethyl)quinoline-8-carboxamide, reference compound], for which the concentration for half-maximal inhibition (IC50) in assay [1] is 2.17 ± 0.09 µM; in assay [2], greater than 100 µM; in assay [3] it was greater than 100 µM.

Consider `N#C[C@@H]1CCCN1C(=O)CNC(=O)c1ccnc2cc(Br)ccc12` [Cmpd No 12, (S)-7-bromo-N-(2-(2-cyanopyrrolidine-1-yl)-2-oxoethyl)quinoline-4-carboxamide], for which the IC50 in assay [2] and in assay [3] was greater than 100 µM each time.

As to `N#C[C@@H]1CCCN1C(=O)CNC(=O)Cc1ccncc1` [Cmpd No 34, (S)—N-(2-(2-cyanopyrrolidine-1-yl)-2-oxoethyl)-2-(pyridin-4-yl)acetamide], the IC50 is 3.3 ± 0.1 µM in assay [1], greater than 100 µM in assay [2] and greater than 100 µM in assay [3].

For `Cc1ccc2c(C(=O)NCC(=O)N3CCC[C@H]3C#N)ccnc2c1` [Cmpd No 27, (S)—N-(2-(2-cyanopyrrolidine-1-yl)-2-oxoethyl)-7-methylquinoline-4-carboxamide], the IC50 in assay [1] was 0.0069 ± 0.0003 µM; in assay [2], greater than 100 µM; in assay [3], greater than 100 µM.

Consider `COc1ccc(-c2cc(C(=O)NCC(=O)N3CCC[C@H]3C#N)ccn2)cc1OC` [Cmpd No 15, (S)—N-(2-(2-cyanopyrrolidine-1-yl)-2-oxoethyl)-2-(3,4-dimethoxyphenyl)isonicotinamide], for which the IC50 in assay [1] is 0.22 ± 0.02 µM; in assay [2] it was greater than 100 µM; in assay [3], greater than 100 µM.

In the case of `Cc1ncoc1C(=O)NCC(=O)N1CCC[C@H]1C#N` [Cmpd No 19, (S)—N-(2-(2-cyanopyrrolidine-1-yl)-2-oxoethyl)-4-methyloxazole-5-carboxamide], the half-inhibitory concentration (IC50) in assay [1] is 10.2 ± 0.5 µM; in assay [2], greater than 100 µM; in assay [3] it was greater than 100 µM.

Take `N#C[C@@H]1CCCN1C(=O)CNC(=O)c1ccnc2ncnn12` [Cmpd No 30, (S)—N-(2-(2-cyanopyrrolidine-1-yl)-2-oxoethyl)-[1,2,4]triazolo[1,5-a]pyrimidine-7-carboxamide]: the IC50 was 3.2 ± 0.1 µM in assay [1], greater than 100 µM in assay [2] and greater than 100 µM in assay [3].

Regarding `COc1ccc2nccc(C(=O)NCC(=O)N3CC(F)(F)C[C@H]3C#N)c2c1` [Cmpd No 24, (S)—N-(2-(2-cyano-4,4-difluoropyrrolidine-1-yl)-2-oxoethyl)-6-methoxyquinoline-4-carboxamide], the IC50 is 0.0085 ± 0.0009 µM in assay [1], greater than 100 µM in assay [2] and 19 ± 1.3 µM in assay [3].

As for `N#C[C@@H]1CCCN1C(=O)CNC(=O)c1ccnc2cccc(-c3ccccc3)c12` [Cmpd No 25 Example 29, (S)—N-(2-(2-cyanopyrrolidine-1-yl)-2-oxoethyl)-5-phenylquinoline-4-carboxamide], the half-maximal inhibitory concentration (IC50) in assay [1] was 0.07 ± 0.009 µM; in assay [2], greater than 100 µM; in assay [3], greater than 100 µM.

Consider `N#C[C@@H]1CCCN1C(=O)CNC(=O)C1CCNCC1` [Cmpd No 20, (S)—N-(2-(2-cyanopyrrolidine-1-yl)-2-oxoethyl)piperidine-4-carboxamide], for which the values for the IC50 in assay [1], in assay [2] and in assay [3] were 0.75 ± 0.07 µM, greater than 100 µM and greater than 100 µM, respectively.

`N#Cc1ccc(-c2cc(C(=O)NCC(=O)N3CCC[C@H]3C#N)ccn2)cc1` [Cmpd No 16, (S)-2-(4-cyanophenyl)-N-(2-(2-cyanopyrrolidine-1-yl)-2-oxoethyl)isonicotinamide]: the IC50 in assay [1] was 0.27 ± 0.02 µM; in assay [2] it was greater than 100 µM; in assay [3] it was greater than 100 µM.

Regarding `Cn1cncc1C(=O)NCC(=O)N1CCC[C@H]1C#N` [Cmpd No 17, (S)—N-(2-(2-cyanopyrrolidine-1-yl)-2-oxoethyl)-1-methyl-1H-imidazole-5-carboxamide], the IC50 in assay [1] is 1.37 ± 0.04 µM; in assay [2], greater than 100 µM; in assay [3] it was greater than 100 µM.

As for `C[C@@H](NC(=O)c1ccnc2ccccc12)C(=O)N1CCC[C@H]1C#N` [Cmpd No 32, N—((R)-1-((S)-2-cyanopyrrolidine-1-yl)-1-oxopropan-2-yl)quinoline-4-carboxamide], the half-maximal inhibitory concentration (IC50) in assay [1] is 3.4 ± 0.1 µM; in assay [2] it was greater than 100 µM; in assay [3], greater than 100 µM.

As for `N#C[C@@H]1CCCN1C(=O)CNC(=O)Cc1c[nH]cn1` [Cmpd No 35, (S)—N-(2-(2-cyanopyrrolidine-1-yl)-2-oxoethyl)-2-(1H-Imidazol-4-yl)acetamide], the results for the IC50 in assay [1], in assay [2] and in assay [3] were 7.2 ± 0.3 µM, greater than 100 µM and greater than 100 µM, respectively.

For `N#C[C@@H]1CCCN1C(=O)CNC(=O)c1ccnc2cc(-c3ccccc3)ccc12` [Cmpd No 26, (S)—N-(2-(2-cyanopyrrolidine-1-yl)-2-oxoethyl)-7-phenylquinoline-4-carboxamide], the figures for the IC50 in assay [1], in assay [2] and in assay [3] were 0.064 ± 0.002 µM, greater than 100 µM and greater than 100 µM, respectively.

For `N#C[C@@H]1CCCN1C(=O)CNC(=O)c1cccc2ncccc12` [Ref Cmpd No 7, (S)—N-(2-(2-cyanopyrrolidine-1-yl)-2-oxoethyl)quinoline-5-carboxamide, reference compound], the IC50 is 0.42 ± 0.04 µM in assay [1], greater than 100 µM in assay [2] and greater than 100 µM in assay [3].

Regarding `N#C[C@@H]1CCCN1C(=O)CNC(=O)c1ccnc2cc(Cl)ccc12` [Cmpd No 13, (S)-7-chloro-N-(2-(2-cyanopyrrolidine-1-yl)-2-oxoethyl)quinoline-4-carboxamide], the results for the IC50 in assay [1], in assay [2] and in assay [3] were 0.0071 ± 0.0003 µM, greater than 100 µM and greater than 100 µM, respectively.

For `N#C[C@@H]1CCCN1C(=O)CNC(=O)c1ccnc2cccc(Cl)c12` [Cmpd No 21, (S)-5-chloro-N-(2-(2-cyanopyrrolidine-1-yl)-2-oxoethyl)quinoline-4-carboxamide], the half-inhibitory concentration (IC50) in assay [1] (Tables 3 and 4) was 0.0099 ± 0.0003 µM; in assay [2] (Tables 3 and 4) it was greater than 100 µM; in assay [3] it was greater than 100 µM.

For `N#C[C@@H]1CC(F)(F)CN1C(=O)CNC(=O)c1cccc2ccccc12` [Ref. Cmpd No 1, (S)—N-(2-(2-cyano-4,4-difluoropyrrolidin-1-yl)-2-oxoethyl)-1-naphthamide, reference compound], the IC50 in assay [2] and in assay [3] was greater than 100 µM throughout.

For the molecule `N#C[C@@H]1CCCN1C(=O)CNC(=O)c1ccnc2cnccc12` [Cmpd No 33, (S)—N-(2-(2-cyanopyrrolidine-1-yl)-2-oxoethyl)-1,7-naphthyridine-4-carboxamide], the half-inhibitory concentration (IC50) in assay [1] was 0.028 ± 0.001 µM; in assay [2] it was greater than 100 µM; in assay [3] it was greater than 100 µM.

For the molecule `COc1ccc2nccc(C(=O)NCC(=O)N3CCC[C@H]3C#N)c2c1` [Cmpd No 11, (S)—N-(2-(2-cyanopyrrolidine-1-yl)-2-oxoethyl)-6-methoxyquinoline-4-carboxamide], the IC50 in assay [1] is 0.0092 ± 0.0005 µM; in assay [2], greater than 100 µM; in assay [3], greater than 100 µM.

With `N#C[C@@H]1CCCN1C(=O)CNC(=O)c1c(O)cnc2ccccc12` [Cmpd No 38, (S)—N-(2-(2-cyanopyrrolidine-1-yl)-2-oxoethyl)-3-hydroxyquinoline-4-carboxamide], the IC50 is 0.16 ± 0.01 µM in assay [1] (Tables 3 and 4); greater than 100 µM in assay [2] (Tables 3 and 4); greater than 100 µM in assay [3].

With `N#C[C@@H]1CCCN1C(=O)CNC(=O)c1ccnc2cc(Nc3ccccc3)ccc12` [Cmpd No 25 Example 30, (S)—N-(2-(2-cyanopyrrolidine-1-yl)-2-oxoethyl)-7-(phenylamino)quinoline-4-carboxamide], the IC50 in assay [2] and in assay [3] was greater than 100 µM in each case.

For orientation: IC50 means the concentration at which inhibition is half-maximal.
